From patent US20140051679A1, “KINASE INHIBITORS AND METHOD OF TREATING CANCER WITH SAME” (UNIVERISTY HEALTH NETWORKS, priority 2011, published 2014)

What was measured:
[1] = system: MDA-MB-468 breast cancer cells; assay: Cell growth inhibition, Sulforhodamine B assay, MDA-MB-468; type: cell-based; details: Homo sapiens, 120 h, 5 days culture, SRB assay, read-out: Cell Line GI50 Range MDA-MB-468
[2] = system: HCT116 colon cancer cells; assay: Cell growth inhibition, Sulforhodamine B assay, HCT116; type: cell-based; details: Homo sapiens, HCT-116, 120 h, 5 days culture, SRB assay, read-out: Cell Line GI50 Range HCT116
[3] = target: T1, human TTK (Homo sapiens, UniProt P33981); assay: TTK inhibition assay (indirect ELISA); type: biochemical; details: GST-TTK 0.68 nM, 16 μM ATP; read-out: IC50 Ranges TTK
T1 construct: amino terminal GST fusion of full length human TTK; purchased Invitrogen
T1 sequence (P33981 1-857): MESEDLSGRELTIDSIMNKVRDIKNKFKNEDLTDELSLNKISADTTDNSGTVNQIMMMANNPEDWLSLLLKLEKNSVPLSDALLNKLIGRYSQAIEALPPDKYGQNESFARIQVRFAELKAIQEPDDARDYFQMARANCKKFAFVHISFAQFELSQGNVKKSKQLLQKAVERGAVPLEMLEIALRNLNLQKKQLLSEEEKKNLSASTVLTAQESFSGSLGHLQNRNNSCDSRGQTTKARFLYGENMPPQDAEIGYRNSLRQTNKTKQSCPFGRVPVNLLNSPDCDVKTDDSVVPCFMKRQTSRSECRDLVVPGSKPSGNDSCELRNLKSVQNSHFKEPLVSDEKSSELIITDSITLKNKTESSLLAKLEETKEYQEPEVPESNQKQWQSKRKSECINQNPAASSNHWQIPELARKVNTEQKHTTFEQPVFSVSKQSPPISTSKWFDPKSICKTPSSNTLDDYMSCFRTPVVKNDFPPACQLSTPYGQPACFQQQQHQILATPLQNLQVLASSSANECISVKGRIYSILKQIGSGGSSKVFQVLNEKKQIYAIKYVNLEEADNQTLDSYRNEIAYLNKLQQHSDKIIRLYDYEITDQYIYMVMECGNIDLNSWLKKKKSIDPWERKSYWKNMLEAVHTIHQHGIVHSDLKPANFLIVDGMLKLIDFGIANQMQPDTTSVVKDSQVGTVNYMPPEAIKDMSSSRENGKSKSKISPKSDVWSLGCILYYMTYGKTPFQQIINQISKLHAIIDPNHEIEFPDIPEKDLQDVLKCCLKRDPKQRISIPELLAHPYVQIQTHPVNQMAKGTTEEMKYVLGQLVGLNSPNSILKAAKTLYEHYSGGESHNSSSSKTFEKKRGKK

[4] = target: T2, human PLK4 (Homo sapiens, UniProt O00444); assay: PLK4 inhibition assay (indirect ELISA); type: biochemical; details: GST-PLK4 4 nM, 15 μM ATP; read-out: IC50 Ranges PLK4
T2 construct: amino terminal GST fusion of residues 1-391 of human PLK4; made in house; host or cells: E. coli
T2 sequence (O00444 1-391): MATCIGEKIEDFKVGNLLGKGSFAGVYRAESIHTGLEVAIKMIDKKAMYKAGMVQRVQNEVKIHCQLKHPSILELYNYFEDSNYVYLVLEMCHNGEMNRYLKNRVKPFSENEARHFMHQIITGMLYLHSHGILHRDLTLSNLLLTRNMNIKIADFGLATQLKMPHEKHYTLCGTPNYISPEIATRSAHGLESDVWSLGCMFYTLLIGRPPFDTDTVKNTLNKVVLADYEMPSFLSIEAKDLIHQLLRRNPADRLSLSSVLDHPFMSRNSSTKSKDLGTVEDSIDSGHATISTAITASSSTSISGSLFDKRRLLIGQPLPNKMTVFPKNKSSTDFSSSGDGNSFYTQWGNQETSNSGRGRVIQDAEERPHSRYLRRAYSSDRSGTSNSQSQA
Experimental: Active PLK4 was purified from an E. coli expression system as an amino terminal GST fusion of residues 1-391 of human PLK4. The protein was purified from clarified cell extracts after induction at 15° C. overnight using glutathione sepharose, gel permeation chromatography, and ion exchange (Resource Q). The resulting protein was dephosphorylated with lambda phosphatase (NEB cat#P0753), and resolved from the phosphatase using gluthione sepharose. The dephosphorylated GST-PLK4 was stored in aliquots at −80° C. until use.
PLK4 activity was measured using an indirect ELISA detection system. GST-PLK4 (4 nM) was incubated in the presence of 15 μM ATP (Sigma cat#A7699), 50 mM HEPES-Na^2+ pH 7.5, 10 mM MgCl2, 0.01% Brij 35 (Sigma cat#03-3170), in a 96 well microtitre plate pre-coated with MBP (Millipore cat#30-011). The reaction was allowed to proceed for 30 minutes, followed by 5 washes of the plate with Wash Buffer (phosphate buffered saline supplemented with 0.2% Tween 20), and incubation for 30 minutes with a 1:3000 dilution of primary antibody (Cell Signaling cat#9381). The plate was washed 5 times with Wash Buffer, incubated for 30 minutes in the presence of secondary antibody coupled to horse radish peroxidase (BioRad cat#1721019, 1:3000 concentration), washed an additional 5 times with Wash Buffer, and incubated in the presence of TMB substrate (Sigma cat#T0440). The colourimetric reaction was allowed to continue for 5 minutes, followed by addition of stop solution (0.5 N sulphuric acid), and quantified by detection at 450 nm with either a monochromatic or filter based plate reader (Molecular Devices M5 or Beckman DTX880, respectively).
Compound inhibition was determined at either a fixed concentration (10 μM) or at a variable inhibitor concentration (typically 0.5 μM to 0.001 μM in a 10 point dose response titration). Compounds were pre-incubated in the presence of enzyme for 15 minutes prior to addition of ATP and the activity remaining quantified using the above described activity assay. The % Inhibition of a compound was determined using the following formula; % Inhibition=100×(1-(experimental value−background value)/(high activity control−background value)). The IC50 value was determined using a non-linear 4 point logistic curve fit (XLfit4, IDBS) with the formula; (A+(B/(1+((x/C)̂D)))), where A=background value, B=range, C=inflection point, D=curve fit parameter.

[5] = system: HT29 colon cancer cells; assay: Cell growth inhibition, Sulforhodamine B assay, HT29; type: cell-based; details: Homo sapiens, HT-29, 120 h, 5 days culture, SRB assay, read-out: Cell Line GI50 Range HT29
[6] = target: T3, Aurora B (Homo sapiens, UniProt Q96GD4); assay: Aurora B inhibition assay (Z-Lyte); type: biochemical; details: 28 nM Aurora B, 128 μM ATP; read-out: IC50 Ranges Aurora B
T3 construct: purchased Invitrogen PV3970
T3 sequence (Q96GD4 whole entry): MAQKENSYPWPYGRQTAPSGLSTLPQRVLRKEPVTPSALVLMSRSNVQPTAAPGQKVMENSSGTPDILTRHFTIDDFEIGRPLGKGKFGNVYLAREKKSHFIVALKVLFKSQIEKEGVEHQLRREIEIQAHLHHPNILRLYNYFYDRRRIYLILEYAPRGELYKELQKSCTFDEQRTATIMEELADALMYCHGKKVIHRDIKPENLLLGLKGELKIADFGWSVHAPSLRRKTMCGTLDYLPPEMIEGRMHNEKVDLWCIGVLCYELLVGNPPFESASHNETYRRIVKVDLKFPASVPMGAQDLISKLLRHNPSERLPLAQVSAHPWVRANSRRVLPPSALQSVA
Experimental: Aurora B inhibition was determined using the Z-Lyte assay kit from Invitrogen. The assay was performed using the recommended manufacturer's instructions with 128 μM ATP and 28 nM Aurora B (Invitrogen cat #PV3970). The % inhibition values were determined according to the manufacturer's directions and IC50 values were obtained using a non-linear 4 point logistic curve fit (XLfit4, IDBS)

Row | GI50 [1] | GI50 [2] | IC50 [3] | IC50 [4] | GI50 [5] | IC50 [6] | Structure (SMILES)
1 | ≤ 5 µM | ≤ 5 µM | ≤ 5 µM | ≤ 5 µM | ≤ 5 µM | ≤ 5 µM | O=C(N[C@H](c1ccccc1)C1CC1)c1ccc2[nH]nc(-c3ccc(N4CCOCC4)cc3)c2c1 [Example A49, (S)—N-(cyclopropyl(phenyl)methyl)-3-(4-morpholinophenyl)-1H-indazole-5-carboxamide]
2 |  |  | ≤ 5 µM | ≤ 5 µM |  | ≤ 5 µM | O=CN1CCC(Oc2ccc(-c3n[nH]c4ccc(C(=O)N[C@H](c5ncccc5Cl)C5CC5)cc34)cc2)CC1 [Example A212, (S)—N-((3-chloropyridin-2-yl)(cyclopropyl)methyl)-3-(4-((1-formylpiperidin-4-yl)oxy)phenyl)-1H-indazole-5-carboxamide]
3 |  |  | ≤ 5 µM | ≤ 5 µM |  | ≤ 5 µM | O=C(NC(c1ccccn1)C1CC1)c1ccc2[nH]nc(-c3ccc(OC4CN(C5COC5)C4)cc3)c2c1 (stereo not drawn) [Example A209, N-(cyclopropyl(pyridin-2-yl)methyl)-3-(4-((1-(oxetan-3-yl)azetidin-3-yl)oxy)phenyl)-1H-indazole-5-carboxamide]
4 |  |  | ≤ 5 µM | ≤ 5 µM |  | ≤ 5 µM | COc1cc(-c2n[nH]c3ccc(C(=O)NC(c4ccccn4)C4CC4)cc23)ccc1OC1CCN(C=O)CC1 (stereo not drawn) [Example A206, N-(cyclopropyl(pyridin-2-yl)methyl)-3-(4-((1-formylpiperidin-4-yl)oxy)-3-methoxyphenyl)-1H-indazole-5-carboxamide]

Further lines, the compound ahead of its results:

Row | Structure (SMILES) | GI50 [1] | GI50 [2] | IC50 [3] | IC50 [4] | GI50 [5] | IC50 [6]
5 | C[C@@H]1CN(c2ccc(-c3n[nH]c4ccc(NC(=O)C(c5ccsc5)N5CCCC5)cc34)cc2)C[C@H](C)O1 (stereo partly drawn) [Example A50, N-(3-(4-((2S,6R)-2,6-dimethylmorpholino)phenyl)-1H-indazol-5-yl)-2-(pyrrolidin-1-yl)-2-(thiophen-3-yl)acetamide] | ≤ 5 µM | ≤ 5 µM | ≤ 5 µM | ≤ 5 µM | ≤ 5 µM | ≤ 5 µM
6 | O=C(N[C@@H](c1ccccc1)C1CC1)c1ccc2[nH]nc(-c3ccc(N4CCOCC4)cc3)c2c1 [Example A51, (R)—N-(cyclopropyl(phenyl)methyl)-3-(4-morpholinophenyl)-1H-indazole-5-carboxamide] | ≤ 5 µM | ≤ 5 µM | ≤ 5 µM | ≤ 5 µM | ≤ 5 µM | ≤ 5 µM
7 | CN(c1ccc(-c2n[nH]c3ccc(NC(=O)C(c4ccsc4)N4CCCC4)cc23)cc1)C1CCOCC1 (stereo not drawn) [Example A78, N-(3-(4-(methyl(tetrahydro-2H-pyran-4-yl)amino)phenyl)-1H-indazol-5-yl)-2-(pyrrolidin-1-yl)-2-(thiophen-3-yl)acetamide] | ≤ 5 µM | ≤ 5 µM | ≤ 5 µM | ≤ 5 µM | ≤ 5 µM | ≤ 5 µM
8 | O=C(Nc1ccc2[nH]nc(-c3ccc(NC4CCOCC4)cc3)c2c1)C(c1ccsc1)N1CCCC1 (stereo not drawn) [Example A71, 2-(pyrrolidin-1-yl)-N-(3-(4-((tetrahydro-2H-pyran-4-yl)amino)phenyl)-1H-indazol-5-yl)-2-(thiophen-3-yl)acetamide] | ≤ 5 µM | ≤ 5 µM | ≤ 5 µM | ≤ 5 µM | ≤ 5 µM | ≤ 5 µM
9 | CN1CCC(Oc2ccc(-c3n[nH]c4ccc(NC(=O)C(c5ccsc5)N5CCCC5)cc34)cc2N)CC1 (stereo not drawn) [Example A80, N-(3-(3-amino-4-((1-methylpiperidin-4-yl)oxy)phenyl)-1H-indazol-5-yl)-2-(pyrrolidin-1-yl)-2-(thiophen-3-yl)acetamide] | ≤ 5 µM | ≤ 5 µM | ≤ 5 µM | ≤ 5 µM | ≤ 5 µM | ≤ 5 µM
10 | CN1CCC(Oc2ccc(-c3n[nH]c4ccc(NC(=O)C5c6ccccc6CCN5C)cc34)cc2)CC1 (stereo not drawn) [Example A39, 2-methyl-N-(3-(4-((1-methylpiperidin-4-yl)oxy)phenyl)-1H-indazol-5-yl)-1,2,3,4-tetrahydroisoquinoline-1-carboxamide] | ≤ 5 µM | ≤ 5 µM | ≤ 5 µM | ≤ 5 µM | ≤ 5 µM | ≤ 5 µM
11 | C[C@H]1CCCN1[C@H](C(=O)Nc1ccc2[nH]nc(-c3ccc(N4CCOCC4)cc3)c2c1)c1ccsc1 [Example A47, (S)-2-((S)-2-methylpyrrolidin-1-yl)-N-(3-(4-morpholinophenyl)-1H-indazol-5-yl)-2-(thiophen-3-yl)acetamide] | ≤ 5 µM | ≤ 5 µM | ≤ 5 µM | ≤ 5 µM | ≤ 5 µM | ≤ 5 µM
12 | C[C@H]1CCCN1[C@H](C(=O)Nc1ccc2[nH]nc(-c3ccc(N4CCOCC4)cc3)c2c1)c1cccs1 [Example A79, (R)-2-((S)-2-methylpyrrolidin-1-yl)-N-(3-(4-morpholinophenyl)-1H-indazol-5-yl)-2-(thiophen-2-yl)acetamide] | ≤ 5 µM | ≤ 5 µM | ≤ 5 µM | ≤ 5 µM | ≤ 5 µM | ≤ 5 µM
13 | COC(C(=O)Nc1ccc2[nH]nc(-c3ccc(OC4CCN(C)CC4)cc3)c2c1)c1ccsc1 (stereo not drawn) [Example A37, 2-methoxy-N-(3-(4-((1-methylpiperidin-4-yl)oxy)phenyl)-1H-indazol-5-yl)-2-(thiophen-3-yl)acetamide] | ≤ 5 µM | ≤ 5 µM | ≤ 5 µM | ≤ 5 µM | ≤ 5 µM | ≤ 5 µM
